molecular target: SARS2 M^pro (Severe acute respiratory syndrome coronavirus 2, UniProt P0DTD1, P3395H); assay type: biochemical, SARS-CoV-2

Structure (SMILES) | % inhibition (20 µM) biochemical
O=S(=O)(O)CCCN1/C(=C/C=C2\CCC(/C=C/c3sc4ccccc4[n+]3CCCS(=O)(=O)O)=C2N(c2ccccc2)c2ccccc2)Sc2ccccc21 [MWAC-0001204, OS(=O)(=O)CCCN1\C(=C\C=C\2/CCC(=C2N(c3ccccc3)c4ccccc4)\C=C\c5sc6ccccc6[n+]5CCCS(=O)(=O)O)\Sc7ccccc17] | 8%
NC(=O)c1ccccc1NC(=O)/C=C/C(=O)O [MWAC-0001765, NC(=O)c1ccccc1NC(=O)\C=C\C(=O)O] | 6.4%
O=C(CCl)NC(c1ccccc1)c1ccc(Cl)cc1 (stereo not drawn) [MWAC-0001861, ClCC(=O)NC(c1ccccc1)c2ccc(Cl)cc2] | 67%
CCOC(=O)c1ccc(NC(=O)CSc2nnc(-c3ccccc3OCC)o2)cc1 [MWAC-0001774, CCOC(=O)c1ccc(NC(=O)CSc2oc(nn2)c3ccccc3OCC)cc1] | 5.5%
CC(NC(=O)CCl)C1COc2ccccc2O1 (stereo not drawn) [MWAC-0001857, CC(NC(=O)CCl)C1COc2ccccc2O1] | 26%
CC1=C(C(=O)OC(C)C)C(c2ccc(F)cc2)C2=C(CC(c3cccs3)CC2=O)N1 (stereo not drawn) [MWAC-0001729, CC(C)OC(=O)C1=C(C)NC2=C(C1c3ccc(F)cc3)C(=O)CC(C2)c4cccs4] | 0%
O=C(Nc1ccc(-c2cscn2)cc1)C1CCCN(Cc2ccccc2)C1 (stereo not drawn) [MWAC-0001767, O=C(Nc1ccc(cc1)c2cscn2)C3CCCN(Cc4ccccc4)C3] | 3.2%
O=C1N(Cc2ccccc2)c2ccccc2C12NNc1ccccc1O2 (stereo not drawn) [MWAC-0001855, O=C1N(Cc2ccccc2)c3ccccc3C14NNc5ccccc5O4] | 2.76%
CCOC(=O)c1[nH]c(C)c(C(=O)Nc2ccccc2SC)c1C [MWAC-0001737, CCOC(=O)c1[nH]c(C)c(C(=O)Nc2ccccc2SC)c1C] | 3.56%
CN1C(=O)C(=Cc2cc(O)ccc2Br)C(=O)N(C)C1=O [MWAC-0001799, CN1C(=O)N(C)C(=O)C(=Cc2cc(O)ccc2Br)C1=O] | 5.42%
Cc1ccc2nc(-c3ccc(SCC(=O)Nc4nc(C)cs4)nc3)[nH]c2c1 [MWAC-0001838, Cc1ccc2nc([nH]c2c1)c3ccc(SCC(=O)Nc4nc(C)cs4)nc3] | 2.56%
CC1CCN(C(=O)/C=C/c2cccc3ccccc23)CC1 [MWAC-0001755, CC1CCN(CC1)C(=O)\C=C\c2cccc3ccccc23] | 4.32%
Cc1ccc(-c2cn3ccc4ccccc4c3n2)cc1 [MWAC-0001723, Cc1ccc(cc1)c2cn3ccc4ccccc4c3n2] | 8%
C#CCN1C(=O)C(O)(CC(=O)c2ccc(F)cc2)c2ccccc21 (stereo not drawn) [MWAC-0001730, OC1(CC(=O)c2ccc(F)cc2)C(=O)N(CC#C)c3ccccc13] | 8%
CCOCCCNC(=O)c1ccc(Cl)c([N+](=O)[O-])c1 [MWAC-0001781, CCOCCCNC(=O)c1ccc(Cl)c(c1)[N+](=O)[O-]] | 0%
CCc1c(C)sc(NC(=O)CCc2ccccc2)c1C(N)=O [MWAC-0001812, CCc1c(C)sc(NC(=O)CCc2ccccc2)c1C(=O)N] | 4%
O=C1NC(=S)NC(=O)C1=Cc1ccccc1OS(=O)(=O)c1ccc2ccccc2c1 [MWAC-0001813, O=C1NC(=S)NC(=O)C1=Cc2ccccc2OS(=O)(=O)c3ccc4ccccc4c3] | 4.38%
O=C(Nc1nccs1)c1ccc(F)cc1[N+](=O)[O-] [MWAC-0001876, [O-][N+](=O)c1cc(F)ccc1C(=O)Nc2nccs2] | 0%
COc1ccc(C2=NN3C(C2)c2ccccc2OC32C(=O)Nc3ccccc32)cc1OC (stereo not drawn) [MWAC-0001819, COc1ccc(cc1OC)C2=NN3C(C2)c4ccccc4OC35C(=O)Nc6ccccc56] | 0.611%
COc1ccc(OC)c(C(=O)c2oc3ccccc3c2NC(=O)CCl)c1 [MWAC-0001832, COc1ccc(OC)c(c1)C(=O)c2oc3ccccc3c2NC(=O)CCl] | 85%
O=C1/C(=C/c2ccc(F)cc2)SC(=S)N1Cc1cccnc1 [MWAC-0001802, Fc1ccc(\C=C\2/SC(=S)N(Cc3cccnc3)C2=O)cc1] | 7%

Structure (SMILES) | % inhibition (20 µM) biochemical
Cc1noc(N)c1C(=O)Nc1ccc(C(C)(C)C)cc1 [MWAC-0001886, Cc1noc(N)c1C(=O)Nc2ccc(cc2)C(C)(C)C] | 0%
O=C(c1cccnc1)N1CCN(c2ccc(Cl)c(Cl)c2)CC1 [MWAC-0001776, Clc1ccc(cc1Cl)N2CCN(CC2)C(=O)c3cccnc3] | 47%
O=C1/C(=C/c2cccnc2)SC(=S)N1Cc1cccnc1 [MWAC-0001816, O=C1N(Cc2cccnc2)C(=S)S/C/1=C\c3cccnc3] | 43%
O=C1OC(NC(=O)c2ccccc2)C(NC(=O)c2ccccc2)=C1Cl (stereo not drawn) [MWAC-0001833, ClC1=C(NC(=O)c2ccccc2)C(NC(=O)c3ccccc3)OC1=O] | 4%
O=C(CN1C(=O)C(=O)N(Cc2ccccc2)C1=O)Nc1cc(Cl)cc(Cl)c1 [MWAC-0001847, Clc1cc(Cl)cc(NC(=O)CN2C(=O)N(Cc3ccccc3)C(=O)C2=O)c1] | 0.75%
COc1ccc(CC(=O)NCc2ccccc2Cl)cc1 [MWAC-0001807, COc1ccc(CC(=O)NCc2ccccc2Cl)cc1] | 1%
O=C(CCl)Nc1cn(-c2ccccc2)nc1-c1ccc(F)cc1 [MWAC-0001848, Fc1ccc(cc1)c2nn(cc2NC(=O)CCl)c3ccccc3] | 13%
COc1cc(OC)cc(C(=O)Nc2ccc(OC(C)C)cc2)c1 [MWAC-0001801, COc1cc(OC)cc(c1)C(=O)Nc2ccc(OC(C)C)cc2] | 5%
COc1ccccc1-c1cc(C(F)(F)F)nc(S(=O)(=O)CCCC(=O)Nc2c(F)cc(F)cc2Br)n1 [MWAC-0001726, COc1ccccc1c2cc(nc(n2)S(=O)(=O)CCCC(=O)Nc3c(F)cc(F)cc3Br)C(F)(F)F] | 43%
COC(=O)c1c(NC(=O)CCl)sc(C(=O)N2CCOCC2)c1C [MWAC-0001850, COC(=O)c1c(C)c(sc1NC(=O)CCl)C(=O)N2CCOCC2] | 74%
COCCCNC(=O)/C(C#N)=C/c1cc(C)n(-c2ccc(F)cc2)c1C [MWAC-0001826, COCCCNC(=O)\C(=C\c1cc(C)n(c1C)c2ccc(F)cc2)\C#N] | 5%
Nc1c(C(=O)c2ccccc2)sc2nc3c(cc12)CCC3 [MWAC-0001815, Nc1c(sc2nc3CCCc3cc12)C(=O)c4ccccc4] | 27%
C#CCN1C(=O)C(O)(CC(=O)c2ccc(Cl)cc2)c2ccccc21 (stereo not drawn) [MWAC-0001731, OC1(CC(=O)c2ccc(Cl)cc2)C(=O)N(CC#C)c3ccccc13] | 5%
Cc1ccc2nc(-c3ccc(NC(=O)CCOc4ccccc4)cc3)sc2c1 [MWAC-0001713, Cc1ccc2nc(sc2c1)c3ccc(NC(=O)CCOc4ccccc4)cc3] | 14%
O=C(C[S+]([O-])c1ccc(C(F)(F)F)cc1[N+](=O)[O-])OCc1ccccc1 (stereo not drawn) [MWAC-0001780, [O-][N+](=O)c1cc(ccc1S(=O)CC(=O)OCc2ccccc2)C(F)(F)F] | 4%
S=C(c1ccc(-c2cccc(Cl)c2)o1)N1CCCCC1 [MWAC-0001879, Clc1cccc(c1)c2oc(cc2)C(=S)N3CCCCC3] | 0%
Cc1ccc2nc(NC(=O)c3ccc(S(C)(=O)=O)c([N+](=O)[O-])c3)sc2c1 [MWAC-0001829, Cc1ccc2nc(NC(=O)c3ccc(c(c3)[N+](=O)[O-])S(=O)(=O)C)sc2c1] | 64%
COc1ccc(C(=O)Nc2ccccc2N)cc1 [MWAC-0001806, COc1ccc(cc1)C(=O)Nc2ccccc2N] | 1%
COc1ccc(-c2cc(=O)c3ccccc3s2)cc1 [MWAC-0001878, COc1ccc(cc1)C2=CC(=O)c3ccccc3S2] | 0%
Cc1ccccc1-c1noc(-c2ccc(O)cc2)n1 [MWAC-0001749, Cc1ccccc1c2noc(n2)c3ccc(O)cc3] | 9%
CCCN1C(=O)C(O)(CC(=O)c2ccccc2OC)c2cc(Br)ccc21 (stereo not drawn) [MWAC-0001769, CCCN1C(=O)C(O)(CC(=O)c2ccccc2OC)c3cc(Br)ccc13] | 2.64%

Reference: PMC11550483 (2024)
